Laboratory results taken from US20220388990A1, “INHIBITORS OF CYCLIN-DEPENDENT KINASES” (Kinnate Biopharma Inc., priority 2019, published 2022).

Test system: panel of 1,151 cancer cell lines
Experiment: not given
Details: in 52% of 1,151 cancer cell lines; cited from earlier work

Structure (SMILES)	IC50 [nM]
CN(C)C/C=C/C(=O)Nc1ccc(C(=O)Nc2cccc(Nc3ncc(Cl)c(-c4c[nH]c5ccccc45)n3)c2)cc1 [THZ1]	< 200

Molecular target: T1, CDK12 wt/CycK (Homo sapiens, UniProt Q9NYV4)
T1 construct: either as full-length or enzymatically active fragments
Experiment: Radiometric protein kinase assay (33PanQinase), assay condition 2, thiol containing conditions
Format: biochemical
Details: thiol containing conditions (1.2 mM DTT), ATP 0.3 μM
Experimental: Example 1—Assay condition 2 (thiol containing conditions)
Objective: The IC50 profile of test compounds was determined using protein kinases. IC50 values were measured by testing 10 concentrations (1×10^−04M, 3×10^−05M, 1×10^−05M, 3×10^−06M, 1×10^−06M, 3×10^−07M, 1×10^−07M, 3×10^−08M, 1×10^−08M, and 3×10^−09M) of each compound in singlicate.
Test compounds: The compounds were provided as pre-weighed powders in vials. The compounds were dissolved to 1×10^−02M by adding DMSO. 100 μl of each of the resulting stock solutions were transferred into column 2 of four 96 well “master plates”
Prior to testing, the 1×10^−02M stock solutions in column 2 of the master plates were subjected to a serial, semi-logarithmic dilution using 100% DMSO as a solvent. […] Column 1 and 7 were filled with 100% DMSO as controls. Subsequently, 2×10 μl from each well of the serial diluted copy plates were aliquoted with a 96 channel pipettor into two identical sets of “compound dilution plates”.
In the process, 90 μl H2O were added to each well of a set of compound dilution plates. To minimize potential precipitation, the H2O was added to each plate only a few minutes before the transfer of the compound solutions into the assay plates. Each plate was shaken thoroughly, resulting in a “compound dilution plate/ 10% DMSO”.
For the assays, 5 μl solution from each well of the compound dilution plates/10% DMSO were transferred into the assay plates. The final volume of the assay was 50 μl. All compounds were tested at 10 final assay concentrations in the range from 1×10^−04M to 3×10^−09M, in singlicate. The final DMSO concentration in the reaction cocktails was 1% in all cases.
Recombinant protein kinases: All protein kinases were expressed in Sf9 insect cells or in E.coli as recombinant GST-fusion proteins or His-tagged proteins, either as full-length or enzymatically active fragments. All kinases were produced from human cDNAs and purified by either GSH-affinity chromatography or immobilized metal. Affinity tags were removed from a number of kinases during purification. The purity of the protein kinases was examined by SDS-PAGE/Coomassie staining, the identity was checked by mass spectroscopy.
Protein kinase assay: A radiometric protein kinase assay (^33PanQinase® Activity Assay) was used for measuring the kinase activity. All kinase assays were performed in 96-well FlashPlates™ from PerkinElmer (Boston, MA, USA) in a 50 μl reaction volume. The reaction cocktail was pipetted in four steps in the following order: • 20 μl of assay buffer (standard buffer) • 5μl of ATP solution (in H2O) • 5μl of test compound (in 10% DMSO) • 20 μl enzyme/substrate mix
The assay for all protein kinases contained 70 mM HEPES-NaOH pH 7.5, 3 mM MgCl2, 3 mM MnCl2, 3 μM Na-orthovanadate, 1.2 mM DTT, 50 μg/ml PEG20000, ATP (variable concentrations, corresponding to the apparent ATP-K. of the respective kinase), [γ-^33P]-ATP (approx. 9×10^05cpm per well), protein kinase, and substrate.
The following amounts of enzyme and substrate were used per well:
The reaction cocktails were incubated at 30° C. for 60 minutes. The reaction was stopped with 50 μl of 2% (v/v) H3PO4, plates were aspirated and washed two times with 200 μl 0.9% (w/v) NaCl. Incorporation of ^33Pi was determined with a microplate scintillation counter (Microbeta, Wallac). All assays were performed with a BeckmanCoulter/SAGIANTM Core System.
Evaluation of raw data: The median value of the counts in column 1 (n=8) of each assay plate was defined as “low control”. This value reflects unspecific binding of radioactivity to the plate in the absence of a protein kinase but in the presence of the substrate. The median value of the counts in column 7 of each assay plate (n=8) was taken as the “high control”, i.e. full activity in the absence of any inhibitor. The difference between high and low control was taken as 100% activity. […]

T1 sequence (Q9NYV4 whole entry, the tested form may be a part): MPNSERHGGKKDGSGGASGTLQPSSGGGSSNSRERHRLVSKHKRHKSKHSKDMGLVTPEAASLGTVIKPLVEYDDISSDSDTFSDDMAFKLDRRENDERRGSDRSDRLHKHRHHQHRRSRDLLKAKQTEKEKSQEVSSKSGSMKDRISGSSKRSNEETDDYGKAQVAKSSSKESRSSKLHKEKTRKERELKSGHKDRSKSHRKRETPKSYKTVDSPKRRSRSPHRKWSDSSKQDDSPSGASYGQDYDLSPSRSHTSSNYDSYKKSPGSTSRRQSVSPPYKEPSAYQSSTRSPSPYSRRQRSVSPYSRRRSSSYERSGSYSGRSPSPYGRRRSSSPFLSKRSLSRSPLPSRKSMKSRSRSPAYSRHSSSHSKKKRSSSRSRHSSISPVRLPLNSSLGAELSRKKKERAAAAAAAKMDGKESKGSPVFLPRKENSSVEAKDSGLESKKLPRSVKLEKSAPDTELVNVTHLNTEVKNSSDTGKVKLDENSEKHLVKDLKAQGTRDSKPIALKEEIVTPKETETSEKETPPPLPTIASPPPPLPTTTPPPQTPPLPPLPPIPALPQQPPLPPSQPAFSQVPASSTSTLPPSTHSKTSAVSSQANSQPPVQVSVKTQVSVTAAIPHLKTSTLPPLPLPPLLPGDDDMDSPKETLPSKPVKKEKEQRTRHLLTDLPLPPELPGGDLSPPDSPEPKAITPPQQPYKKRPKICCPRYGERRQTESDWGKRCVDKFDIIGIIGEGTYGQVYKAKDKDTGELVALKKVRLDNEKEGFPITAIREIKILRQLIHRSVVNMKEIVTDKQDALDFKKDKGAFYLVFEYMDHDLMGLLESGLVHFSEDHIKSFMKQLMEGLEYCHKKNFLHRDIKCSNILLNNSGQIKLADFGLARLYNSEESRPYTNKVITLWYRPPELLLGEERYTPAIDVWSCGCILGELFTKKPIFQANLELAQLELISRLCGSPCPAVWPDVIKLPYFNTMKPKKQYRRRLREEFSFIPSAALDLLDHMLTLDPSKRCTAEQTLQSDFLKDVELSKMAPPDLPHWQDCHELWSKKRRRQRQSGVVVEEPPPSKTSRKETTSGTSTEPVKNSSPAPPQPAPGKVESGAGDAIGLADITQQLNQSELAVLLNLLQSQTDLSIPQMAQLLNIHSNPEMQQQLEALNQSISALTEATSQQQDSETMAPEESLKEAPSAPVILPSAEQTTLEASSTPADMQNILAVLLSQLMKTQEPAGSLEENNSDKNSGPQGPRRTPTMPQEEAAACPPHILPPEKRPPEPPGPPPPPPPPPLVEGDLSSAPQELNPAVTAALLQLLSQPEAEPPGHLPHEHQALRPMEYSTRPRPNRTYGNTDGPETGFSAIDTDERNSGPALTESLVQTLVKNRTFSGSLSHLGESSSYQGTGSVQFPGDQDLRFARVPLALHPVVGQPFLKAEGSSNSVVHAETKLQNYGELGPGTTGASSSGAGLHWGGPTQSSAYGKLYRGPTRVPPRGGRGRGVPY
T1 sequence (O75909 whole entry partner, the tested form may be a part): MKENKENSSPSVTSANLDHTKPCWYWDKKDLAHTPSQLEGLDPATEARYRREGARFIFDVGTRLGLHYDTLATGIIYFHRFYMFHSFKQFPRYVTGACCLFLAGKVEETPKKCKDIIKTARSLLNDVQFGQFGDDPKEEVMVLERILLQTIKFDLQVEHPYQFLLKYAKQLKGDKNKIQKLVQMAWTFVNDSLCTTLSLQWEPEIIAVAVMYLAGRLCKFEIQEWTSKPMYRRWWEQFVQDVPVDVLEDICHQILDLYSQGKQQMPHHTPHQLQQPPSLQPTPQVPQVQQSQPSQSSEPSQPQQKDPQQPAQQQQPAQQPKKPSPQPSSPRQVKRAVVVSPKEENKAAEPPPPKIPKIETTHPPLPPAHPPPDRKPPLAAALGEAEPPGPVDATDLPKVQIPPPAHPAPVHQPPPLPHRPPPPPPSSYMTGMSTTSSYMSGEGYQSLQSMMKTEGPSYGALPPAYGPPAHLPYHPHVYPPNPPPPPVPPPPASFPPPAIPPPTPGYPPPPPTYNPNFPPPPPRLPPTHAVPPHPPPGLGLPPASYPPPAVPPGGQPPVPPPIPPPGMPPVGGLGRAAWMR

Structure (SMILES)	IC50 [nM]
C=CC(=O)Nc1ccc2c(N3CC[C@@H](Nc4ncc(C#N)cn4)C3)nc(N3CCOCC3)cc2c1 [Example 37, (R)—N-(1-(3-((5-cyanopyrimidin-2-yl)amino)pyrrolidin-1-yl)-3-morpholinoisoquinolin-6-yl)acrylamide]	≤ 100
C=CC(=O)N(C)c1ccc2c(N3CC[C@@H](Nc4ncc(C#N)cn4)C3)nc(C)nc2c1 [Example 39, (R)—N-(4-(3-((5-cyanopyrimidin-2-yl)amino)pyrrolidin-1-yl)-2-methylquinazolin-7-yl)-N-methylacrylamide]	≤ 100

Second part, the compound after the results:

IC50 [nM]	Structure (SMILES)
≤ 100	C=CC(=O)N(C)c1ccc2c(N3CC[C@@H](Nc4ncc(Br)cn4)C3)nc(C)nc2c1 [Example 40, (R)—N-(4-(3-((5-bromopyrimidin-2-yl)amino)pyrrolidin-1-yl)-2-methylquinazolin-7-yl)-N-methylacrylamide]
≤ 100	C=CC(=O)N(C)c1ccc2c(N3CC[C@@H](Nc4ncc(C#N)cn4)C3)nc(N3CCN(C)CC3)nc2c1 [Example 41, (R)—N-(4-(3-((5-cyanopyrimidin-2-yl)amino)pyrrolidin-1-yl)-2-(4-methylpiperazin-1-yl)quinazolin-7-yl)-N-methylacrylamide]
≤ 100	C=CC(=O)N(C)c1ccc2c(N3CC[C@@H](Nc4ncc(C#N)cn4)C3)nc(C3=CCN(C)CC3)cc2c1 [Example 42, (R)—N-(1-(3-((5-cyanopyrimidin-2-yl)amino)pyrrolidin-1-yl)-3-(1-methyl-1,2,3,6-tetrahydropyridin-4-yl)isoquinolin-6-yl)-N-methylacrylamide]
